Measurements: PubChem BioAssay (NCI)
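In this assay, cells in 96-well plates receive the compound at five concentrations for 48 hours. Endpoints are linearly interpolated between the surrounding concentrations. Abbreviation: GI50, concentration required for 50% inhibition of growth. TGI denotes the concentration required for complete inhibition of growth.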

What was measured:
Test in all cases: inhibition of tumour cell growth, NCI panel, 48 h
[1] = test system: 786-0 renal
[2] = test system: A498 renal
[3] = test system: A549 NSCLC
[4] = test system: ACHN renal
[5] = test system: BT-549 breast
[6] = test system: CCRF-CEM leukemia
[7] = test system: COLO 205 colon
[8] = test system: DU-145 prostate
[9] = test system: EKVX NSCLC
[10] = test system: HCC-2998 colon
[11] = test system: HCT-116 colon
[12] = test system: HCT-15 colon
[13] = test system: HL-60(TB) leukemia
[14] = test system: HOP-62 NSCLC
[15] = test system: HOP-92 NSCLC
[16] = test system: HS 578T breast
[17] = test system: HT29 colon
[18] = test system: IGROV1 ovarian
[19] = test system: K-562 leukemia
[20] = test system: KM12 colon
[21] = test system: LOX IMVI melanoma
[22] = test system: M14 melanoma
[23] = test system: MALME-3M melanoma
[24] = test system: MCF7 breast
[25] = test system: MDA-MB-231 breast
[26] = test system: MDA-MB-435
[27] = test system: MOLT-4 leukemia
[28] = test system: NCI-H226 lung
[29] = test system: NCI-H23 lung
[30] = test system: NCI-H460 lung
[31] = test system: NCI-H522 lung
[32] = test system: NCI/ADR-RES ovarian
[33] = test system: OVCAR-3 ovarian
[34] = test system: OVCAR-4 ovarian
[35] = test system: OVCAR-5 ovarian
[36] = test system: OVCAR-8 ovarian
[37] = test system: PC-3 prostate
[38] = test system: RPMI-8226 leukemia
[39] = test system: RXF 393 renal
[40] = test system: SF-268 CNS
[41] = test system: SF-295 CNS
[42] = test system: SF-539 CNS
[43] = test system: SK-MEL-2 melanoma
[44] = test system: SK-MEL-28 melanoma
[45] = test system: SK-MEL-5 melanoma
[46] = test system: SK-OV-3 ovarian
[47] = test system: SN12C renal
[48] = test system: SNB-19 CNS
[49] = test system: SNB-75 CNS
[50] = test system: SR leukemia
[51] = test system: SW-620 colon
[52] = test system: T-47D breast
[53] = test system: TK-10 renal
[54] = test system: U251 CNS
[55] = test system: UACC-257 melanoma
[56] = test system: UACC-62 melanoma
[57] = test system: UO-31 renal

With `C=C1[C@@H](C)C2[C@H](Cc3ccccc3)NC(=O)[C@]23[C@H](OC(C)=O)/C=C/[C@@](C)(O)C(=O)[C@@H](C)C/C=C/[C@H]3[C@@H]1O` (stereo not given in full) the TGI [1] was over 16.7 µM, the GI50 [2] was 0.11 µM and the TGI [2] was 0.826 µM. The GI50 [3] was 0.915 µM, the TGI [3] was over 16.7 µM and the GI50 [4] was 1.32 µM. For the same compound, the TGI [4] was over 16.7 µM, the GI50 [5] was 0.528 µM and the TGI [5] was over 16.7 µM. It also gave a GI50 [6] of over 11.8 µM, a TGI [6] of over 16.7 µM and a GI50 [7] of 2.32 µM. The TGI [7] was over 16.7 µM, the GI50 [8] was 7.04 µM and the TGI [8] was over 16.7 µM. The GI50 [9] was 0.975 µM, the TGI [9] was over 16.7 µM and the GI50 [10] was over 16.7 µM. It also gave a TGI [10] of over 16.7 µM, a GI50 [11] of 0.718 µM and a TGI [11] of over 16.7 µM. It also gave a TGI [12] of over 16.7 µM, a GI50 [13] of 5.31 µM and a TGI [13] of over 16.7 µM. For the same compound, the GI50 [14] was 0.035 µM, the TGI [14] was over 4.4 µM and the GI50 [15] was 0.099 µM. It also gave a TGI [15] of 0.699 µM, a GI50 [16] of 0.0826 µM and a TGI [16] of over 16.7 µM. For the same compound, the GI50 [17] was 0.0933 µM, the TGI [17] was over 16.7 µM and the GI50 [18] was 0.574 µM. For the same compound, the TGI [18] was over 16.7 µM, the GI50 [19] was over 16.7 µM and the TGI [19] was over 16.7 µM. For the same compound, the GI50 [20] was over 16.7 µM, the TGI [20] was over 16.7 µM and the GI50 [21] was 0.272 µM. It also gave a TGI [21] of over 8.76 µM, a GI50 [22] of over 11.4 µM and a TGI [22] of over 16.7 µM. For the same compound, the GI50 [23] was over 16.7 µM, the TGI [23] was over 16.7 µM and the GI50 [24] was 0.756 µM. It also gave a TGI [24] of over 16.7 µM, a GI50 [25] of 0.366 µM and a TGI [25] of over 16.7 µM. The GI50 [26] was over 16.7 µM, the TGI [26] was over 16.7 µM and the TGI [27] was over 16.7 µM. The GI50 [28] was 16.5 µM, the TGI [28] was over 16.7 µM and the GI50 [29] was over 16.7 µM. For the same compound, the TGI [29] was over 16.7 µM, the GI50 [30] was 0.571 µM and the TGI [30] was over 16.7 µM. The TGI [31] was over 16.7 µM, the GI50 [32] was over 16.7 µM and the TGI [32] was over 16.7 µM. For the same compound, the GI50 [33] was over 16.7 µM, the TGI [33] was over 16.7 µM and the GI50 [34] was 0.824 µM. It also gave a TGI [34] of over 16.7 µM, a GI50 [35] of over 9.92 µM and a TGI [35] of over 16.7 µM. The GI50 [36] was over 16.7 µM, the TGI [36] was over 16.7 µM and the GI50 [37] was over 16.7 µM. For the same compound, the TGI [37] was over 16.7 µM, the GI50 [38] was 3.84 µM and the TGI [38] was over 16.7 µM. The GI50 [39] was 0.105 µM, the TGI [39] was 4.19 µM and the GI50 [40] was 0.228 µM. It also gave a TGI [40] of over 16.7 µM, a GI50 [41] of 1.16 µM and a TGI [41] of over 16.7 µM. It also gave a GI50 [42] of 0.322 µM, a TGI [42] of over 16.7 µM and a GI50 [43] of over 16.7 µM. For the same compound, the TGI [43] was over 16.7 µM, the GI50 [44] was over 16.7 µM and the TGI [44] was over 16.7 µM. It also gave a GI50 [45] of 0.955 µM, a TGI [45] of over 11.8 µM and a GI50 [46] of 0.0997 µM. For the same compound, the TGI [46] was over 15.2 µM, the GI50 [47] was over 16.7 µM and the TGI [47] was over 16.7 µM. The GI50 [48] was 0.265 µM, the TGI [48] was over 16.7 µM and the GI50 [49] was 0.0126 µM. For the same compound, the TGI [49] was 0.12 µM, the GI50 [50] was over 15.7 µM and the TGI [50] was over 16.7 µM. It also gave a GI50 [51] of over 16.7 µM, a TGI [51] of over 16.7 µM and a GI50 [52] of over 16.7 µM. It also gave a TGI [52] of over 16.7 µM, a GI50 [53] of 0.714 µM and a TGI [53] of over 16.7 µM. The GI50 [54] was 0.105 µM, the TGI [54] was over 16.7 µM and the GI50 [55] was over 16.7 µM. It also gave a TGI [55] of over 16.7 µM, a GI50 [56] of over 16.7 µM and a TGI [56] of over 16.7 µM. The GI50 [57] was 0.251 µM and the TGI [57] was 3.58 µM.
